Data: ChEMBL document CHEMBL3351901 (Bioorg Med Chem, 2014)
Positions count from the first letter of the chain named. pIC50: −log10 of the molar value.

Columns and labels:
[1] = target: T1, Aldo-keto reductase family 1 member C3 (Homo sapiens, UniProt P42330)
T1 sequence (P42330 whole entry): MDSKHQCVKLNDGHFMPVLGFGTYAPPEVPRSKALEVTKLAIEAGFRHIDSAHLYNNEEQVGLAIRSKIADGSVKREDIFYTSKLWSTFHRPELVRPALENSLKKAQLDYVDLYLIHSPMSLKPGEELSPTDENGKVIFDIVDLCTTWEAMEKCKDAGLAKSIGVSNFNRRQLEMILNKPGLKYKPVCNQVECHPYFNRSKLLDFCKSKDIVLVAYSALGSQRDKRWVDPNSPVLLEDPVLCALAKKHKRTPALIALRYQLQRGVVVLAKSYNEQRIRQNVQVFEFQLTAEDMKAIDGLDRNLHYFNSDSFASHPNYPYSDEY
Description: Inhibition of AKR1C3 (unknown origin) assessed as dehydrogenase activity of enzyme by NADPH fluorescence assay

[2] = target: T2, Aldo-keto reductase family 1 member C1 (Homo sapiens, UniProt Q04828); test: Inhibition of AKR1C1 (unknown origin) assessed as dehydrogenase activity of enzyme by NADPH fluorescence assay
T2 sequence (Q04828 whole entry): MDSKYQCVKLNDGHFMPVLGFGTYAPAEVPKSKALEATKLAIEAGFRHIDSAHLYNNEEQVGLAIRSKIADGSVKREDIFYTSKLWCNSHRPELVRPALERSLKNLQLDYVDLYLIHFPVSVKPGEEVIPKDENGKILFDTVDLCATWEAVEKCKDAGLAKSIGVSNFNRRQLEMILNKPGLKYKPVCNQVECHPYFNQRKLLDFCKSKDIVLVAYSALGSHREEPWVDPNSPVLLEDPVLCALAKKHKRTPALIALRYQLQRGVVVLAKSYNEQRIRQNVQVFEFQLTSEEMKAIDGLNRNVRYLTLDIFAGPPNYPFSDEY

[3] = target: T1, Aldo-keto reductase family 1 member C3; test: Inhibition of AKR1C3-mediated androsterone metabolism in human A549 cells assessed as 5alpha-androstane-3alpha, 17beta-diol after 24 hrs by LC/MS analysis; type: cell-based
[4] = target: T3, Aldo-keto reductase family 1 member C4 (Homo sapiens, UniProt P17516); test: Inhibition of AKR1C4 (unknown origin) assessed as dehydrogenase activity of enzyme by NADPH fluorescence assay
T3 sequence (P17516 whole entry): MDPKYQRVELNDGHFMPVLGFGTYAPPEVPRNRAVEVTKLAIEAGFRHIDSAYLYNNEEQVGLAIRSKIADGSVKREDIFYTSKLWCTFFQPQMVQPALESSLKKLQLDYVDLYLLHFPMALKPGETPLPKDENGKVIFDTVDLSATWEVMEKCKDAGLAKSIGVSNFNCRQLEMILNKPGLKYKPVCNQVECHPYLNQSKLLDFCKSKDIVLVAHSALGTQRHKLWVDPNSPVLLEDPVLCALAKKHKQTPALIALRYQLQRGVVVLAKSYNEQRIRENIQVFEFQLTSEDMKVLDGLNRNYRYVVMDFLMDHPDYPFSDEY

[5] = target: T4, Aldo-keto reductase family 1 member C2 (Homo sapiens, UniProt P52895); test: Inhibition of AKR1C2 (unknown origin) assessed as dehydrogenase activity of enzyme by NADPH fluorescence assay
T4 sequence (P52895 whole entry): T2 sequence (Q04828 whole entry) with T38V, R47H, L54V, C87S, V151M, R170H, Q172L

| SMILES | pIC50 [1] | also measured |
| --- | --- | --- |
| O=C(O)/C=C/c1ccc(OC(=O)CCc2ccccc2)c(OCc2ccc(F)cc2)c1 | 6.66 |  |
| CCOc1cc(/C=C/C(=O)O)ccc1OC(=O)CCc1ccccc1 | 6.01 |  |
| CCCCOc1cc(/C=C/C(=O)O)ccc1OC(=O)CCc1ccccc1 | 6.38 |  |
| CC(C)COc1cc(/C=C/C(=O)O)ccc1OC(=O)CCc1ccccc1 | 6.25 |  |
| C/C=C/COc1cc(/C=C/C(=O)O)ccc1OC(=O)CCc1ccccc1 | 5.96 |  |
| C=C(C)COc1cc(/C=C/C(=O)O)ccc1OC(=O)CCc1ccccc1 | 6.07 |  |
| O=C(O)/C=C/c1ccc(OC(=O)CCc2ccccc2)c(OCc2ccccc2)c1 | 6.41 |  |
| Cc1ccc(COc2cc(/C=C/C(=O)O)ccc2OC(=O)CCc2ccccc2)cc1 | 6.96 |  |
| O=C(O)/C=C/c1ccc(OC(=O)CCc2ccccc2)c(OCc2ccccc2F)c1 | 6.49 |  |
| O=C(O)/C=C/c1ccc(OC(=O)CCc2ccccc2)c(OCc2cccc(F)c2)c1 | 6.96 |  |
| O=C(O)/C=C/c1ccc(OC(=O)CCc2ccccc2)c(OCc2cc(F)cc(F)c2)c1 | 6.44 |  |
| Cc1ccc(COc2cc(/C=C/C(=O)O)ccc2OC(=O)CCc2cccc(F)c2)cc1 | 6.80 |  |
| O=C(O)/C=C/c1ccc(OC(=O)CCc2cccc(F)c2)c(OCc2cccc(F)c2)c1 | 6.40 |  |
| O=C(O)/C=C/c1ccc(OC(=O)CCc2c(F)cc(F)cc2F)c(OCc2cccc(F)c2)c1 | 6.24 |  |
| O=C(O)/C=C/c1ccc(OC(=O)CCc2cccc(O)c2)c(OCc2cccc(F)c2)c1 | 6.10 |  |
| COc1cccc(COc2cc(/C=C/C(=O)O)ccc2OC(=O)CCc2ccccc2)c1 | 6.02 | pIC50 [2]: < 4.00; pIC50 [4]: < 4.00; pIC50 [5]: < 4.00 |

Continued by rising pIC50 [1], values first:

| pIC50 [1] | SMILES | also measured |
| --- | --- | --- |
| 5.35 | COc1cc(/C=C/C(=O)O)ccc1OC(=O)CCc1ccccc1 |  |
| 5.51 | CC(C)Oc1cc(/C=C/C(=O)O)ccc1OC(=O)CCc1ccccc1 |  |
| 5.66 | CCCOc1cc(/C=C/C(=O)O)ccc1OC(=O)CCc1ccccc1 |  |
| 6.04 | Cc1ccc(COc2cc(/C=C/C(=O)O)ccc2OC(=O)CCc2cccc(O)c2)cc1 |  |
| 6.05 | O=C(O)/C=C/c1ccc(OC(=O)CCc2ccccc2)c(OCc2ccc(Cl)cc2)c1 |  |
| 6.08 | O=C(O)/C=C/c1ccc(OC(=O)CCc2ccc(O)cc2)c(OCc2cccc(F)c2)c1 |  |
| 6.11 | Cc1ccc(COc2cc(/C=C/C(=O)O)ccc2OC(=O)CCc2ccc(O)cc2)cc1 |  |
| 6.24 | O=C(O)/C=C/c1ccc(OC(=O)CCc2ccccc2)c(OCCc2ccccc2)c1 |  |
| 6.27 | Cc1ccc(COc2cc(/C=C/C(=O)O)ccc2OC(=O)CCc2c(F)cc(F)cc2F)cc1 |  |
| 6.27 | O=C(O)/C=C/c1ccc(OC(=O)CCc2ccc(F)cc2)c(OCc2cccc(F)c2)c1 |  |
| 6.33 | Cc1ccc(COc2cc(/C=C/C(=O)O)ccc2OC(=O)CCc2ccc(F)cc2)cc1 |  |
| 7.70 | O=C(O)/C=C/c1ccc(OC(=O)CCc2ccccc2)c(OCc2cccc(O)c2)c1 | pIC50 [2]: 4.09; pIC50 [3]: 5.10; pIC50 [4]: 4.70; pIC50 [5]: < 4.00 |
